Data set [1] concerns P. aeruginosa biofilm. As to the kind of experiment: Checkerboard synergy of D-LL-31 with antibiotics on biofilm. It counts as cell-based, Pseudomonas aeruginosa. The settings on record: IC50 alone compared with concentration of combination. The procedure: (§1) Bacterial viability in each interaction was determined using the plate count technique. The fractional inhibitory concentration index (FICI) values were calculated and interpreted in terms of synergism/antagonism as previously described. Each experiment was performed independently three times in duplicate.

Data set [2] has as its system K. pneumoniae biofilm. Described as above. It counts as cell-based, Klebsiella pneumoniae. The conditions noted are these: D-LL-31 combined with AMX; IC50 alone compared with concentration of combination. Here is the method:
as §1

The test system of data set [3] is biofilm matrix of all tested strains. The experiment in a line: Biofilm matrix reduction (AAA-model, CLSM, COMSTAT biomass), statements for all tested strains. It counts as cell-based. Here is the method:
(§2) Briefly, 1.5 ml of each overnight culture (10^8 CFU/ml) was added to a 24-well tissue culture plate (Nunclon™). The plate was covered with a sterile stainless-steel lid containing glass coverslips and aerobically incubated at 37°C for 24 h. […] All tested conditions were incubated at 37°C for 24 h. A well free of antimicrobial agent was used as a control. Following incubation, biofilms were fixed with 2.5% glutaraldehyde (Sigma-Aldrich) at 25°C for 3 h. The fixed bacterial biofilms on glass coverslips were stained with 50 μg/ml Alexa Fluor® 488 (Invitrogen, Carlsbad, CA) for 30 min. This stain reacts with exopolysaccharide matrixes of the biofilm. The glass coverslips were then mounted with 80% glycerol and the stained cells were photographed using a confocal laser-scanning microscope (CLSM) (TCS SP8-Leica Microsystems, Wetzlar, Germany). […] Each experiment was performed independently three times in duplicate.

The test system of data set [4] is A549 human lung epithelial cells. The experiment in a line: Cytokine antibody array of culture supernatant. The conditions noted are these: 10 μM, 24 h. It counts as cell-based. The procedure: The immunomodulatory effect of D-LL-31 on A549 human lung epithelial cells was investigated using cytokine antibody arrays. […] Cells in medium without peptide were used as a control. After incubation, the secreted cytokines in culture supernatant were detected using a human angiogenesis antibody array kit (AAH-ANG-1000-4, Norcross, GA) according to the manufacturer's instructions. […] Each experiment was performed independently two times in duplicate.

The subject of the next data set is all bacteria in biofilm. The experiment in a line: Killing of bacteria grown as biofilm (TSP pin lid), statements for all bacteria. It counts as cell-based. Here is the method:
(§3) The effects of both conventional antibiotics and AMPs against bacteria under biofilm-stimulating condition were determined using a transferable solid phase (TSP) pin lid, which resembles the ‘Calgary’ biofilm device as previously described with some modifications. Each strain (10^7 CFU/ml) was added to sterile 96-well plates (Nunclon™), then covered by a TSP pin lid (NUNC™, Roskilde, Denmark), and further incubated at 37 °C for 24 h. […] Additionally, the effect of TOB (2–836 μM or 1–391 μg/ml) against P. aeruginosa biofilm was also investigated. Then the plates were statically incubated at 37 °C for 24 h. A well free of antimicrobial agent was used as a control. After 24 h, bacterial survival was determined using the plate count technique on NA (Himedia®). The percentage killing of each antimicrobial agent was calculated using the formula [1 − (CFU sample/CFU control)] × 100% [15, 19]. […] Each experiment was performed independently three times in duplicate.

In data set [5] the test system is all tested isolates (K. pneumoniae, S. epidermidis, P. aeruginosa, P. aeruginosa ATCC 27853). The experiment in a line: Killing of planktonic bacteria (CFU count), statements for all tested isolates. The settings on record: 1 μM, within 1 h, 5 x 10^5 CFU/ml, all tested strains. It counts as cell-based. The procedure: A bacterial suspension without peptide served as a control. The samples were then serially diluted and cultivated on NA (Himedia®) and incubated for 24 h to allow colony counting. […] Each experiment was performed independently three times in duplicate.

For data set [6], the system named is P. aeruginosa biofilm matrix. As to the kind of experiment: Biofilm matrix reduction (AAA-model, CLSM, COMSTAT biomass). It counts as cell-based, Pseudomonas aeruginosa. The settings on record: combination of D-LL-31 (0.5 μM) and TOB (0.2 μM), 24 h. The procedure:
as §2

In data set [7] the test system is S. epidermidis biofilm. As to the kind of experiment: Checkerboard synergy of D-LL-31 with antibiotics on biofilm. It counts as cell-based, Staphylococcus epidermidis. The settings on record: D-LL-31 combined with AMX; IC50 alone compared with concentration of combination. Here is the method: as §1
Data set [8] relates to hRBCs (human red blood cells). The settings on record: cited from earlier work.
Data set [9] relates to S. epidermidis biofilm. The experiment in a line: microbe, parasite or virus in culture. The procedure: as §3
The subject of data set [10] is K. pneumoniae biofilm. As to the kind of experiment: microbe, parasite or virus in culture. The settings on record: biofilm, 24 h. The procedure: as §3
Data set [11] relates to P. aeruginosa biofilm. The experiment in a line: microbe, parasite or virus in culture. The settings on record: biofilm, 24 h. The procedure:
as §3

Data set [12] relates to A549 cells (human lung epithelial cells). The settings on record: 25 µM.
Method: Briefly, A549 cells were maintained in RPMI-1640 (HyClone™, Marlborough, MA) with 10% fetal bovine serum (FBS) (HyClone™) and sub-cultured by standard methods using trypsin/EDTA (0.25% trypsin, 0.1% EDTA) (Corning™, Corning, NY). A standard curve of A549 cells (100–50000 cells/well) was constructed as previously described with some modification [43]. For MTT assay, cells were plated at a density of 2.5×10^4 cells/well in 96-well plates and grown overnight. […] Prepared A549 cells were then exposed to the diluted peptides for 24 h at 37°C, 5% CO2 atmosphere. Negative controls received either culture medium or PPB. Cells with 2% dimethyl sulfoxide (DMSO) (Sigma-Aldrich) were used as positive control. Cytotoxicity was assessed using MTT (0.5 mg/ml) according to the manufacturer's instructions (Sigma-Aldrich). Absorbance was measured at a wavelength of 570 nm with background subtraction at 630–690 nm. Then absorbance values from the MTT were converted to cells/well using a standard curve. Cell viabilities were calculated using the formula; [mean of cells in treated well]/[mean of cells in control well] × 100%. Each experiment was performed independently three times in triplicate.

Square brackets hold non-standard residues; d marks the D form. Peptide text beside a SMILES is read from it.

`CC[C@@H](C)[C@@H](NC(=O)[C@@H](CCCCN)NC(=O)[C@@H](CCC(=O)O)NC(=O)[C@@H](CCCCN)NC(=O)[C@@H](CO)NC(=O)[C@@H](CCCCN)NC(=O)[C@@H](CCCNC(=N)N)NC(=O)[C@@H](Cc1ccccc1)NC(=O)[C@@H](Cc1ccccc1)NC(=O)[C@@H](CC(=O)O)NC(=O)CNC(=O)[C@@H](CC(C)C)NC(=O)[C@H](N)CC(C)C)C(=O)NCC(=O)N[C@H](CCCCN)C(=O)N[C@H](CCC(=O)O)C(=O)N[C@H](Cc1ccccc1)C(=O)N[C@H](CCCCN)C(=O)N[C@H](CCCNC(=N)N)C(=O)N[C@@H](C(=O)N[C@@H](C(=O)N[C@H](CCC(N)=O)C(=O)N[C@H](CCCNC(=N)N)C(=O)N[C@@H](C(=O)N[C@H](CCCCN)C(=O)N[C@H](CC(=O)O)C(=O)N[C@H](Cc1ccccc1)C(=O)N[C@H](CC(C)C)C(=O)N[C@H](CCCNC(=N)N)C(=O)N[C@H](CC(N)=O)C(=O)N[C@H](CC(C)C)C(=O)O)[C@H](C)CC)C(C)C)[C@H](C)CC` [D-LL-31] (H-[dL][dL]G[dD][dF][dF][dR][dK][dS][dK][dE][dK][dI]G[dK][dE][dF][dK][dR][dI][dV][dQ][dR][dI][dK][dD][dF][dL][dR][dN][dL]-OH; N-terminus and C-terminus assumed): the “Fold decrease of IC50 values” in the data set with P. aeruginosa biofilm [1] (D-LL-31 combined with AMX) is recorded as 16 fold; with P. aeruginosa biofilm [1] (D-LL-31 combined with TOB), 8 fold; with K. pneumoniae biofilm [2] it was 8 fold; with S. epidermidis biofilm [7] it was 16 fold. Also, the “biofilm biomass relative to controls” value in data set [3] (D-LL-31 in combination with antibiotics, 24 h, P < 0.001) is listed as “Significant decreases”; in data set [3] (D-LL-31 treatment alone at IC50, 24 h, P < 0.01), “Significant decreases”. Besides, the “biofilm matrix relative to controls” value in data set [3] (combination of D-LL-31 with AMX, 24 h, all tested strains) is on record as “distinct decrease”; in [6], “statistically significant reduction”. In addition, in data set [4], the “expression of IFN-γ” value was “not found”. In addition, the “expression of IL-6” value in data set [4] is recorded as “did not induce”. For the same compound, the “levels of IL-4, IL-8, TNF-α and GRO-a, b and g” value in data set [4] is recorded as “no significant change”. In data set [4] (P < 0.05), the “ENA-78 secretion relative to controls” value is listed as “significantly secreted”. In addition, the “TIMP-2 in culture supernatant” value in [4] (P < 0.05) is “significantly elevated”. Further, the half-maximal inhibitory concentration (IC50) – broadly, the point on the concentration scale where inhibition reaches its midpoint – was 500 to 4000 nM in the data set on all bacteria in biofilm (24 h biofilm, 24 h, read-out: IC50 values, range over all bacteria in biofilm); 500 nM with S. epidermidis biofilm [9] (biofilm, 24 h); 600 nM in the data set with K. pneumoniae biofilm [10]; 4 µM in the data set with P. aeruginosa biofilm [11]. Further, in the data set with all bacteria in biofilm (D-LL-31 alone and in combination with antibiotics, biofilm-stimulating condition), the “IC70 values, range” value was 0.8 to 8.7 µM. In addition, the IC90 (in general, the point of the concentration-response curve where the effect stands at 90%) with all bacteria in biofilm (bacteria grown as biofilm, read-out: IC90 values, range) lay within 1 to 25 µM. For the same compound, the “killing of bacterial cells, in words” value in data set [5] is “completely killed”. The hemolytic activity entry in data set [8] is listed as “less than 1%”. Besides, the “killing activity compared with all tested peptides” value in the data set with S. epidermidis biofilm [9] (1.56–25 μM, P < 0.05, one-way ANOVA) is on record as “significantly higher”. In addition, the viable cells entry in data set [12] is “more than 80%”.

The record behind these values is PMC7743948, “D-LL-31 enhances biofilm-eradicating effect of currently used antibiotics for chronic rhinosinusitis and its immunomodulatory activity on human lung epithelial cells” (PLoS ONE, 2020).
